Publication PMC5218480 (PLoS ONE, 2017)

Test system: MV-4-11 cells
Assay: Gene expression microarray analysis (Affymetrix PrimeView) and GSEA
Type: cell-based, human
Parameters: RFU PODN (11730768_x_at) / Fold change /veh PODN (11730768_x_at) / RFU LINC00158 (11744669_a_at) / Fold change /veh LINC00158 (11744669_a_at) / RFU DUSP10 (11751237_a_at) / Fold change /veh DUSP10 (11751237_a_at) / RFU ID3 (11757404_x_at) / Fold change /veh ID3 (11757404_x_at) / RFU PLEKHG5 (11737974_s_at) / Fold change /veh PLEKHG5 (11737974_s_at) / RFU LRRC4B (11730491_at) / Fold change /veh LRRC4B (11730491_at) / RFU GIMAP4 (11747438_a_at) / Fold change /veh GIMAP4 (11747438_a_at) / RFU KRT8 (11758183_x_at) / Fold change /veh KRT8 (11758183_x_at) / RFU CNN1 (11734310_a_at) / Fold change /veh CNN1 (11734310_a_at) / RFU VPS37D (11726825_at) / Fold change /veh VPS37D (11726825_at) / RFU C10orf10 (11716522_x_at) / Fold change /veh C10orf10 (11716522_x_at) / RFU KIR2DL2 /// KIR2DL4 /// KIR2DL5A /// KIR2DL5B /// KIR2DS1 /// KIR2DS2 /// KIR2DS3 /// KIR2DS4 /// KIR3DL3 /// KIR3DL3 /// KIR3DS1 (11738374_at) / Fold change /veh KIR2DL2 /// KIR2DL4 /// KIR2DL5A /// KIR2DL5B /// KIR2DS1 /// KIR2DS2 /// KIR2DS3 /// KIR2DS4 /// KIR3DL3 /// KIR3DL3 /// KIR3DS1 (11738374_at) / RFU C1QL1 (11718748_at) / Fold change /veh C1QL1 (11718748_at) / RFU TMPRSS4 (11747572_a_at) / Fold change /veh TMPRSS4 (11747572_a_at) / RFU HAMP (11756126_x_at) / Fold change /veh HAMP (11756126_x_at) / RFU RNFT2 (11725882_a_at) / Fold change /veh RNFT2 (11725882_a_at) / RFU NR4A2 (11747474_a_at) / Fold change /veh NR4A2 (11747474_a_at) / RFU ABCC12 (11746883_a_at) / Fold change /veh ABCC12 (11746883_a_at) / RFU TMEM136 (11760407_x_at) / Fold change /veh TMEM136 (11760407_x_at) / RFU CLDN22 /// WWC2 (11732394_at) / Fold change /veh CLDN22 /// WWC2 (11732394_at) / RFU HLA-DPB1 (11760878_x_at) / Fold change /veh HLA-DPB1 (11760878_x_at) / RFU SPINT1 (11716480_a_at) / Fold change /veh SPINT1 (11716480_a_at) / RFU GAP43 (11754022_s_at) / Fold change /veh GAP43 (11754022_s_at) / RFU A4GNT (11735810_at) / Fold change /veh A4GNT (11735810_at) / RFU PRB3 (11715151_x_at) / Fold change /veh PRB3 (11715151_x_at) / RFU TUBB4B (11761932_at) / Fold change /veh TUBB4B (11761932_at) / RFU CAPN14 (11732068_a_at) / Fold change /veh CAPN14 (11732068_a_at) / RFU TMCC2 (11721928_a_at) / Fold change /veh TMCC2 (11721928_a_at) / RFU IRGQ (11745062_a_at) / Fold change /veh IRGQ (11745062_a_at) / RFU FAM174B (11720279_a_at) / Fold change /veh FAM174B (11720279_a_at) / RFU TMPRSS4 (11748680_a_at) / Fold change /veh TMPRSS4 (11748680_a_at) / RFU FAM212B (11763350_a_at) / Fold change /veh FAM212B (11763350_a_at) / RFU PLEKHG5 (11743358_a_at) / Fold change /veh PLEKHG5 (11743358_a_at) / RFU ZSCAN30 (11745921_a_at) / Fold change /veh ZSCAN30 (11745921_a_at) / RFU CMKLR1 (11741424_a_at) / Fold change /veh CMKLR1 (11741424_a_at) / RFU LOC101060620 /// MAPK8IP1 (11723275_at) / Fold change /veh LOC101060620 /// MAPK8IP1 (11723275_at) / RFU SPTSSB (11747773_x_at) / Fold change /veh SPTSSB (11747773_x_at) / RFU PRSS12 (11739890_at) / Fold change /veh PRSS12 (11739890_at) / RFU BIN1 (11741810_x_at) / Fold change /veh BIN1 (11741810_x_at) / RFU WNT11 (11732464_a_at) / Fold change /veh WNT11 (11732464_a_at) / RFU C10orf10 (11716521_a_at) / Fold change /veh C10orf10 (11716521_a_at) / RFU C5orf56 (11738089_at) / Fold change /veh C5orf56 (11738089_at) / RFU CYB561 (11721691_x_at) / Fold change /veh CYB561 (11721691_x_at) / RFU ANKRD19P (11752326_a_at) / Fold change /veh ANKRD19P (11752326_a_at) / RFU OR2T12 /// OR2T33 /// OR2T8 (11738714_s_at) / Fold change /veh OR2T12 /// OR2T33 /// OR2T8 (11738714_s_at) / RFU VCAN (11748164_a_at) / Fold change /veh VCAN (11748164_a_at) / RFU JSRP1 (11732532_at) / Fold change /veh JSRP1 (11732532_at) / RFU KRTAP10-11 (11738290_x_at) / Fold change /veh KRTAP10-11 (11738290_x_at) / RFU MYO3A (11730013_a_at) / Fold change /veh MYO3A (11730013_a_at) / RFU EBF3 (11725865_a_at) / Fold change /veh EBF3 (11725865_a_at) / RFU CAMK2N1 (11719241_x_at) / Fold change /veh CAMK2N1 (11719241_x_at) / RFU C5orf56 (11738088_a_at) / Fold change /veh C5orf56 (11738088_a_at) / RFU OLFML3 (11715873_a_at) / Fold change /veh OLFML3 (11715873_a_at) / RFU LOC100653217 /// NTM (11731650_a_at) / Fold change /veh LOC100653217 /// NTM (11731650_a_at) / RFU MAPK11 (11762145_a_at) / Fold change /veh MAPK11 (11762145_a_at) / RFU FIZ1 (11724087_x_at) / Fold change /veh FIZ1 (11724087_x_at) / RFU OASL (11726364_x_at) / Fold change /veh OASL (11726364_x_at) / RFU SOX15 (11748057_x_at) / Fold change /veh SOX15 (11748057_x_at) / RFU CD79A (11719716_a_at) / Fold change /veh CD79A (11719716_a_at) / RFU HIST1H1D (11736915_at) / Fold change /veh HIST1H1D (11736915_at) / RFU CASKIN2 (11723855_a_at) / Fold change /veh CASKIN2 (11723855_a_at) / RFU LOC730098 (11760151_x_at) / Fold change /veh LOC730098 (11760151_x_at) / RFU OR4N2 (11742367_at) / Fold change /veh OR4N2 (11742367_at) / RFU PRRT2 (11749266_a_at) / Fold change /veh PRRT2 (11749266_a_at) / RFU SNX32 (11753110_a_at) / Fold change /veh SNX32 (11753110_a_at) / RFU CDHR5 (11726645_a_at) / Fold change /veh CDHR5 (11726645_a_at) / RFU RCAN1 (11760418_a_at) / Fold change /veh RCAN1 (11760418_a_at) / RFU FAM167A (11723789_a_at) / Fold change /veh FAM167A (11723789_a_at) / RFU FAM26E (11764081_at) / Fold change /veh FAM26E (11764081_at) / RFU ISYNA1 (11749810_s_at) / Fold change /veh ISYNA1 (11749810_s_at) / RFU ACY1 (11761880_at) / Fold change /veh ACY1 (11761880_at) / RFU 11764098_at / Fold change /veh 11764098_at / RFU SAMD14 (11745864_x_at) / Fold change /veh SAMD14 (11745864_x_at) / RFU NPB (11741838_a_at) / Fold change /veh NPB (11741838_a_at) / RFU TMPRSS6 (11731388_a_at) / Fold change /veh TMPRSS6 (11731388_a_at) / RFU KRTAP10-2 (11738614_at) / Fold change /veh KRTAP10-2 (11738614_at) / RFU ARHGAP8 /// PRR5-ARHGAP8 (11727945_x_at) / Fold change /veh ARHGAP8 /// PRR5-ARHGAP8 (11727945_x_at) / RFU KRTAP5-7 /// NADSYN1 (11734609_at) / Fold change /veh KRTAP5-7 /// NADSYN1 (11734609_at) / RFU RASL12 (11751679_a_at) / Fold change /veh RASL12 (11751679_a_at) / RFU CDKN2B (11736163_a_at) / Fold change /veh CDKN2B (11736163_a_at) / RFU PRF1 (11729649_at) / Fold change /veh PRF1 (11729649_at) / RFU, ZNF638 /// ZNF638-IT1 / Fold change vs veh, ZNF638 /// ZNF638-IT1 / RFU, PANK3 / Fold change vs veh, PANK3 / RFU, SH3YL1 / Fold change vs veh, SH3YL1 / RFU, ZEB2 / Fold change vs veh, ZEB2 / RFU, NRIP1 / Fold change vs veh, NRIP1 / RFU, PTTG1IP / Fold change vs veh, PTTG1IP / RFU, CAPN2 / Fold change vs veh, CAPN2 / RFU, MED14 / Fold change vs veh, MED14 / RFU, SNORA58 / Fold change vs veh, SNORA58 / RFU, C1orf63 / Fold change vs veh, C1orf63 / RFU, LRRFIP1 / Fold change vs veh, LRRFIP1 / RFU, NDUFAF7 / Fold change vs veh, NDUFAF7 / RFU, SLC12A2 / Fold change vs veh, SLC12A2 / RFU, IBTK / Fold change vs veh, IBTK / RFU, ESF1 / Fold change vs veh, ESF1 / Fold change vs veh, TMEM50B / RFU, TAOK1 / Fold change vs veh, TAOK1 / RFU, ACBD3 / Fold change vs veh, ACBD3 / RFU, TMA16 / Fold change vs veh, TMA16 / RFU, RWDD3 / Fold change vs veh, RWDD3 / RFU, BCAT1 / Fold change vs veh, BCAT1 / RFU, EDEM3 / Fold change vs veh, EDEM3 / RFU, TMEM33 / Fold change vs veh, TMEM33 / RFU, WDR75 / Fold change vs veh, WDR75 / RFU, AHCTF1 / Fold change vs veh, AHCTF1 / RFU, TFRC / Fold change vs veh, TFRC / RFU, ZDHHC17 / Fold change vs veh, ZDHHC17 / RFU, NOM1 / Fold change vs veh, NOM1 / RFU, ARL8B / Fold change vs veh, ARL8B / RFU, ZBTB11 / Fold change vs veh, ZBTB11 / RFU, TAMM41 / Fold change vs veh, TAMM41 / RFU, KIAA1704 /// LOC100996395 / Fold change vs veh, KIAA1704 /// LOC100996395 / RFU, ING1 / Fold change vs veh, ING1 / RFU, TRMT61B / Fold change vs veh, TRMT61B / RFU, FUBP3 / Fold change vs veh, FUBP3 / RFU, TP53 / Fold change vs veh, TP53 / RFU, TNKS2 / Fold change vs veh, TNKS2 / RFU, ZFP14 / Fold change vs veh, ZFP14 / RFU, ACTR2 / Fold change vs veh, ACTR2 / RFU, PPP3R1 / Fold change vs veh, PPP3R1 / RFU, PIK3R1 / Fold change vs veh, PIK3R1 / RFU, HNRNPA1 / Fold change vs veh, HNRNPA1 / RFU, RNF170 / Fold change vs veh, RNF170 / RFU, ZNF28 / Fold change vs veh, ZNF28 / RFU, RNGTT / Fold change vs veh, RNGTT / RFU, OGT / Fold change vs veh, OGT / RFU, BRD1 / Fold change vs veh, BRD1 / RFU, MARS / Fold change vs veh, MARS / RFU, ZNF655 / Fold change vs veh, ZNF655 / RFU, FAHD1 / Fold change vs veh, FAHD1 / RFU, BDP1 / Fold change vs veh, BDP1 / RFU, LRRCC1 / Fold change vs veh, LRRCC1 / RFU, ARID1A / Fold change vs veh, ARID1A / RFU, ZNF146 / Fold change vs veh, ZNF146 / RFU, ZNF330 / Fold change vs veh, ZNF330 / RFU, GPN3 / Fold change vs veh, GPN3 / RFU, C9orf123 / Fold change vs veh, C9orf123 / RFU, N4BP2L2 / Fold change vs veh, N4BP2L2 / RFU, ARFIP1 / Fold change vs veh, ARFIP1 / RFU, FAM179B / Fold change vs veh, FAM179B / RFU, BCL10 / Fold change vs veh, BCL10 / RFU, UHRF1BP1L / Fold change vs veh, UHRF1BP1L / RFU, BET1 / Fold change vs veh, BET1 / RFU, CNOT2 / Fold change vs veh, CNOT2 / RFU, ZNF268 / Fold change vs veh, ZNF268 / Fold change vs veh, ZNF507 / RFU, DGCR2 / Fold change vs veh, DGCR2 / RFU, WDSUB1 / Fold change vs veh, WDSUB1 / Fold change vs veh, HSP90B1 /// MIR3652 / RFU, ADSS / Fold change vs veh, ADSS / RFU, GK / Fold change vs veh, GK / RFU, ZNF148 / Fold change vs veh, ZNF148 / RFU, TAF9 / Fold change vs veh, TAF9 / RFU, SLC1A5 / Fold change vs veh, SLC1A5 / RFU, SLMO2 / Fold change vs veh, SLMO2 / RFU, ABCC4 / Fold change vs veh, ABCC4 / RFU, LOC101060439 /// RAP1B / Fold change vs veh, LOC101060439 /// RAP1B / RFU, RFX7 / Fold change vs veh, RFX7 / RFU, GTPBP10 / Fold change vs veh, GTPBP10 / RFU, CNEP1R1 / Fold change vs veh, CNEP1R1 / RFU, BIVM-ERCC5 /// ERCC5 / Fold change vs veh, BIVM-ERCC5 /// ERCC5 / RFU, ILF3 / Fold change vs veh, ILF3 / RFU 11762660_at / Fold change /veh 11762660_at / RFU VCAN (11757783_s_at) / Fold change /veh VCAN (11757783_s_at) / RFU DDX43 (11728927_at) / Fold change /veh DDX43 (11728927_at) / RFU KRT8 (11758188_x_at) / Fold change /veh KRT8 (11758188_x_at) / RFU NKD1 (11759106_at) / Fold change /veh NKD1 (11759106_at) / RFU SRD5A1 (11742802_a_at) / Fold change /veh SRD5A1 (11742802_a_at) / RFU TPSAB1 /// TPSB2 (11721975_s_at) / Fold change /veh TPSAB1 /// TPSB2 (11721975_s_at) / RFU GSTM3 (11746129_a_at) / Fold change /veh GSTM3 (11746129_a_at) / RFU IL23R (11737362_x_at) / Fold change /veh IL23R (11737362_x_at) / RFU TMEM51 (11727254_a_at) / Fold change /veh TMEM51 (11727254_a_at) / RFU PIWIL2 (11732686_x_at) / Fold change /veh PIWIL2 (11732686_x_at) / RFU ORM1 (11744905_x_at) / Fold change /veh ORM1 (11744905_x_at) / RFU CCDC152 (11743942_at) / Fold change /veh CCDC152 (11743942_at) / RFU ECM1 (11717891_a_at) / Fold change /veh ECM1 (11717891_a_at) / RFU IL23R (11748794_a_at) / Fold change /veh IL23R (11748794_a_at) / RFU TNFAIP8L3 (11732012_x_at) / Fold change /veh TNFAIP8L3 (11732012_x_at) / RFU MBOAT4 (11741988_at) / Fold change /veh MBOAT4 (11741988_at) / RFU 11764193_at / Fold change /veh 11764193_at / RFU TMEM53 (11763286_at) / Fold change /veh TMEM53 (11763286_at) / RFU MAGEB2 (11727129_at) / Fold change /veh MAGEB2 (11727129_at) / RFU TMEM200A (11744735_a_at) / Fold change /veh TMEM200A (11744735_a_at) / RFU CCDC152 (11751479_a_at) / Fold change /veh CCDC152 (11751479_a_at) / RFU FAM211A (11726209_a_at) / Fold change /veh FAM211A (11726209_a_at) / RFU RGS16 (11746705_a_at) / Fold change /veh RGS16 (11746705_a_at) / RFU VCAN (11755009_s_at) / Fold change /veh VCAN (11755009_s_at) / RFU RHOB (11743442_s_at) / Fold change /veh RHOB (11743442_s_at) / RFU RGS16 (11720943_a_at) / Fold change /veh RGS16 (11720943_a_at) / RFU RGS16 (11720944_at) / Fold change /veh RGS16 (11720944_at) / RFU, VPS4B / Fold change vs veh, VPS4B / RFU, CREB1 / Fold change vs veh, CREB1 / RFU, DNAJC13 / Fold change vs veh, DNAJC13 / RFU, GNAQ / Fold change vs veh, GNAQ / RFU, CDK5R1 / Fold change vs veh, CDK5R1 / RFU, ZRANB3 / Fold change vs veh, ZRANB3 / RFU, CUL4A / Fold change vs veh, CUL4A / RFU, CCNY / Fold change vs veh, CCNY / RFU, UFL1 / Fold change vs veh, UFL1 / RFU, COG3 / Fold change vs veh, COG3 / RFU, DIAPH2 / Fold change vs veh, DIAPH2 / RFU, SKA2 / Fold change vs veh, SKA2 / RFU, AFF3 / Fold change vs veh, AFF3 / RFU, LMF1 / Fold change vs veh, LMF1 / RFU, IPO11 / Fold change vs veh, IPO11 / RFU, DFFB / Fold change vs veh, DFFB / RFU, FOXP1 / Fold change vs veh, FOXP1 / RFU, CARD8 / Fold change vs veh, CARD8 / RFU, STRN3 / Fold change vs veh, STRN3 / RFU, ADK / Fold change vs veh, ADK / RFU, RASSF2 / Fold change vs veh, RASSF2 / RFU, WIPF1 / Fold change vs veh, WIPF1 / RFU, LARP1B / Fold change vs veh, LARP1B / RFU, RASA1 / Fold change vs veh, RASA1 / RFU, RB1 / Fold change vs veh, RB1 / RFU, PPFIA1 / Fold change vs veh, PPFIA1 / RFU, MAT2A / Fold change vs veh, MAT2A / RFU, CCT5 / Fold change vs veh, CCT5 / RFU, WDR92 / Fold change vs veh, WDR92 / RFU, CUX1 / Fold change vs veh, CUX1 / RFU, TTC7A / Fold change vs veh, TTC7A / RFU, TMEM135 / Fold change vs veh, TMEM135 / RFU, DEPTOR / Fold change vs veh, DEPTOR / RFU, CPM / Fold change vs veh, CPM / RFU, DNAJB6 / Fold change vs veh, DNAJB6 / RFU, CACNA2D3 / Fold change vs veh, CACNA2D3 / RFU, DTX4 / Fold change vs veh, DTX4 / RFU, TFCP2 / Fold change vs veh, TFCP2 / RFU, GMCL1 /// GMCL1P1 / Fold change vs veh, GMCL1 /// GMCL1P1 / RFU, AEBP2 / Fold change vs veh, AEBP2 / RFU, SNHG1 /// SNORD22 /// SNORD25 /// SNORD26 /// SNORD27 /// SNORD28 /// SNORD29 /// SNORD31 / Fold change vs veh, SNHG1 /// SNORD22 /// SNORD25 /// SNORD26 /// SNORD27 /// SNORD28 /// SNORD29 /// SNORD31 / Fold change (Aza/veh), C12orf56 (ProbeSet 11735607_a_at) / Fold change (ACY-1035/veh), C12orf56 (ProbeSet 11735607_a_at) / Fold change (Aza/veh), FGFR1OP (ProbeSet 11751329_s_at) / Fold change (ACY-1035/veh), FGFR1OP (ProbeSet 11751329_s_at) / Fold change (Aza/veh), VPS36 (ProbeSet 11739960_a_at) / Fold change (ACY-1035/veh), VPS36 (ProbeSet 11739960_a_at) / RFU SYPL1 (11715823_x_at) / Fold change /veh SYPL1 (11715823_x_at) / RFU IGFBP7 (11715501_s_at) / Fold change /veh IGFBP7 (11715501_s_at) / RFU REEP3 (11722064_at) / Fold change /veh REEP3 (11722064_at) / RFU IGLL1 (11728026_x_at) / Fold change /veh IGLL1 (11728026_x_at): dose or concentration left out as unconfirmed
Details: ProbeSet 11723944_a_at; LIST B

Nc1ccc(-c2cccs2)cc1NC(=O)c1ccc2c(c1)cc(C1CC1)n2CCN1CCOCC1 [ACY-1035]
Fold change vs veh, PTTG1IP: 0.91
